Results on 13 molecules are retold here after patent US10165776B2, “Substituted pyrazolylpyrazole derivative and use of same as herbicide” (KYOYU AGRI CO., LTD., priority 2015, dated 2019).

Common to all, as to type: in vivo
Data set [1] relates to Galinsoga parviflora. Nature of the data set: Weed foliar treatment test (Test 4, 4.0 to 5.0 leaf stage). The following applies: 10 g a.i./10 a; foliar spray at 4.0 to 5.0 leaf stage of Digitaria ciliaris (plant height 10 cm to 15 cm); 20 days at 25° C. How it is done:
(§1) Field soil was filled into a 1/4500 are pot followed by seeding with Digitaria ciliaris and Galinsoga parviflora, covering with soil and cultivating in a glass greenhouse at an average atmospheric temperature of 25° C. Wettable powders of Target Compound (I) shown in Table 1 prepared in compliance with the preparation examples were diluted with water to the prescribed amount of chemical and uniformly sprayed onto the weeds using 100 liters of sprayed water per 10 are when Digitaria ciliaris had grown to the 4.0 to 5.0 leaf stage (plant height: 10 cm to 15 cm). After treating for 20 days in a glass greenhouse at an average atmospheric temperature of 25° C., the herbicidal efficacy thereof was investigated. Evaluation of herbicidal efficacy was carried out in the same manner as the above-mentioned Test Example 1.

The subject of data set [2] is Digitaria ciliaris. The description is as above. The following applies: 10 g a.i./10 a; foliar spray at 4.0 to 5.0 leaf stage of Digitaria ciliaris (plant height 10 cm to 15 cm); 20 days at 25° C. How it is done: as §1
Data set [3] concerns Monochoria vaginalis. Put plainly: Paddy herbicidal activity test. Conditions: irrigated pot, treated at 3.5 leaf stage of Echinochloa crus-galli, 30 days at 30° C. The procedure:
(§2) Rice paddy soil was filled into a 1/10000 are pot followed by the addition of suitable amounts of water and chemical fertilizer, kneading, seeding with Echinochloa crus-galli, Monochoria vaginalis and Scirpus juncoides and maintaining in an irrigated state at a water depth of 3 cm. Wettable powders of Target Compound (I) shown in Table 1 prepared in compliance with the preparation examples were diluted with a suitable amount of water, rice plants in the 2.0 leaf stage were transplanted during 3.5 leaf stage of Echinochloa crus-galli, and treated by dropping in chemical in the prescribed amount per 10 are using a pipette. After treating for 30 days in a glass greenhouse at an average atmospheric temperature of 30° C., the herbicidal efficacy thereof was investigated. Evaluation of herbicidal efficacy was carried out by comparing growth inhibition rate (%) with an untreated group, while evaluation of phytotoxicity was carried out by comparing growth inhibition rate (%) with the state of a complete eradication group, and were evaluated at 11 levels indicated below.

The subject of data set [4] is Echinochloa crus-galli. Nature of the data set: Paddy herbicidal activity test. Conditions: irrigated pot, treated at 3.5 leaf stage of Echinochloa crus-galli, 30 days at 30° C. How it is done: as §2
Data set [5] has as its system Scirpus juncoides. Put plainly: Paddy herbicidal activity test. The following applies: irrigated pot, treated at 3.5 leaf stage of Echinochloa crus-galli, 30 days at 30° C. How it is done:
as §2

In data set [6] the test system is Amaranthus retroflexus. Nature of the data set: Weed foliar treatment test (Test 3, 1.0 to 2.0 leaf stage). Conditions: foliar spray at 1.0 to 2.0 leaf stage of Digitaria ciliaris, 3 weeks at 25° C. How it is done:
(§3) Soil was filled into a 1/6000 are pot followed by seeding with Digitaria ciliaris, Chenopodium album and Amaranthus retroflexus, covering with soil, and cultivating in a glass greenhouse at an average atmospheric temperature of 25° C. Wettable powders of Target Compound (I) shown in Table 1 prepared in compliance with the preparation examples were diluted with water to the prescribed amount of chemical and uniformly sprayed onto the weeds using 150 liters of sprayed water per 10 are when Digitaria ciliaris had grown to the 1.0 to 2.0 leaf stage. After treating for 3 weeks in a glass greenhouse at an average atmospheric temperature of 25° C., the herbicidal efficacy thereof was investigated. Evaluation of herbicidal efficacy was carried out in the same manner as the above-mentioned Test Example 1.

For data set [7], the system named is Chenopodium album. Described as above. Conditions: foliar spray at 1.0 to 2.0 leaf stage of Digitaria ciliaris, 3 weeks at 25° C. How it is done:
as §3

The test system of data set [8] is Digitaria ciliaris. The description is as above. The following applies: foliar spray at 1.0 to 2.0 leaf stage of Digitaria ciliaris, 3 weeks at 25° C. The procedure: as §3
The test system of data set [9] is Amaranthus retroflexus. Put plainly: Farming soil treatment test. Conditions: soil surface spray prior to weed growth, 30 days at 30° C. How it is done: (§4) Field soil was filled into a 1/6000 are pot followed by seeding with Digitaria ciliaris, Chenopodium album and Amaranthus retroflexus and covering with soil. Wettable powders of compounds of formula (I) shown in Table 1 prepared in compliance with the preparation examples were diluted with water to the prescribed amount of chemical and uniformly sprayed onto each soil surface layer using 100 liters of sprayed water per 10 are prior to weed growth following seeding. After treating for 30 days in a glass greenhouse at an average atmospheric temperature of 30° C., the herbicidal efficacy thereof was investigated. Evaluation of herbicidal efficacy was carried out in the same manner as the above-mentioned Test Example 1.

Data set [10] has as its system Chenopodium album. Put plainly: Farming soil treatment test. The following applies: soil surface spray prior to weed growth, 30 days at 30° C. How it is done: as §4
For data set [11], the system named is Digitaria ciliaris. Put plainly: Farming soil treatment test. The following applies: soil surface spray prior to weed growth, 30 days at 30° C. How it is done:
as §4

Data set [12] relates to Oryza sativa. Nature of the data set: Paddy herbicidal activity test, phytotoxicity to transplanted rice. The following applies: rice transplanted at 2.0 leaf stage, 30 days at 30° C. How it is done:
as §2

As for `N#Cc1cnn(-c2nn3c(c2Cl)CCC3)c1NC(=O)Cc1ccccc1` [Compound 2], the “herbicidal efficacy, Galinsoga parviflora” value in data set [1] is 10 (10: 100%). For the same molecule, the “herbicidal efficacy, Digitaria ciliaris” value in data set [2] is 10 (10: 100%).
With `N#Cc1cnn(-c2nn3c(c2Cl)CCCC3)c1NC(=O)Cc1ccccc1` [Compound 3], the results for the “herbicidal efficacy, Monochoria vaginalis” value in data set [3] (1 g a.i./10 a) and in data set [3] (5 g a.i./10 a) were 9 (9: 90% to less than 100%) and 10 (10: 100%), respectively. For the same molecule, the results for the “herbicidal efficacy, Echinochloa crus-galli” value in data set [4] (1 g a.i./10 a) and in data set [4] (5 g a.i./10 a) were 9 (9: 90% to less than 100%) and 10 (10: 100%), respectively. The “herbicidal efficacy, Scirpus juncoides” value in [5] (1 g a.i./10 a) is reported as 9 (9: 90% to less than 100%); in data set [5] (5 g a.i./10 a), 10 (10: 100%). Moreover, the “herbicidal efficacy, Amaranthus retroflexus” value in data set [6] (5 g a.i./10 a) is on record as 9 (9: 90% to less than 100%); in data set [6] (10 g a.i./10 a) it was 10 (10: 100%); in [9] (5 g a.i./10 a), 9 (9: 90% to less than 100%); in [9] (10 g a.i./10 a) it was 9 (9: 90% to less than 100%). The “herbicidal efficacy, Chenopodium album” value is listed as 10 (10: 100%) in data set [7] (5 g a.i./10 a), 10 (10: 100%) in [7] (10 g a.i./10 a), 9 (9: 90% to less than 100%) in data set [10] (5 g a.i./10 a) and 10 (10: 100%) in data set [10] (10 g a.i./10 a). Also, the “herbicidal efficacy, Digitaria ciliaris” value is 10 (10: 100%) in [8] (5 g a.i./10 a); 10 (10: 100%) in [8] (10 g a.i./10 a); 10 (10: 100%) in [2]; 9 (9: 90% to less than 100%) in data set [11] (5 g a.i./10 a); 9 (9: 90% to less than 100%) in [11] (10 g a.i./10 a). Further, the “herbicidal efficacy, Galinsoga parviflora” value in data set [1] is given as 10 (10: 100%). Also, the “phytotoxicity, Oryza sativa” value in data set [12] (1 g a.i./10 a) is given as 0 (0 (exponent): 0% to less than 10% (growth inhibition rate)); in data set [12] (5 g a.i./10 a), 1 (1: 10% to less than 20%).
For the molecule `N#Cc1cnn(-c2nn3c(c2Br)CCCC3)c1NC(=O)Cc1ccccc1` [Compound 4], the “herbicidal efficacy, Galinsoga parviflora” value in [1] is given as 10 (10: 100%). In data set [2], the “herbicidal efficacy, Digitaria ciliaris” value was 10 (10: 100%).
For `O=C(Cc1ccccc1)Nc1c([N+](=O)[O-])cnn1-c1nn2c(c1Cl)CCCC2` [Compound 5], the “herbicidal efficacy, Monochoria vaginalis” value in data set [3] (1 g a.i./10 a) and in data set [3] (5 g a.i./10 a) was 10 (10: 100%) each time. For the same molecule, the “herbicidal efficacy, Echinochloa crus-galli” value in [4] (1 g a.i./10 a) and in data set [4] (5 g a.i./10 a) was 10 (10: 100%) in each case. Moreover, the “herbicidal efficacy, Scirpus juncoides” value is listed as 9 (9: 90% to less than 100%) in data set [5] (1 g a.i./10 a) and 10 (10: 100%) in [5] (5 g a.i./10 a). In addition, the “herbicidal efficacy, Amaranthus retroflexus” value in data set [6] (5 g a.i./10 a) is given as 10 (10: 100%); in data set [6] (10 g a.i./10 a), 10 (10: 100%); in data set [9] (5 g a.i./10 a), 9 (9: 90% to less than 100%); in [9] (10 g a.i./10 a), 9 (9: 90% to less than 100%). For the same molecule, the “herbicidal efficacy, Chenopodium album” value in data set [7] (5 g a.i./10 a) is 10 (10: 100%); in data set [7] (10 g a.i./10 a), 10 (10: 100%); in [10] (5 g a.i./10 a), 9 (9: 90% to less than 100%); in data set [10] (10 g a.i./10 a), 10 (10: 100%). The “herbicidal efficacy, Digitaria ciliaris” value was 10 (10: 100%) in data set [8] (5 g a.i./10 a); 10 (10: 100%) in data set [8] (10 g a.i./10 a); 10 (10: 100%) in [2]; 9 (9: 90% to less than 100%) in [11] (5 g a.i./10 a); 9 (9: 90% to less than 100%) in [11] (10 g a.i./10 a). Besides, the “herbicidal efficacy, Galinsoga parviflora” value in data set [1] is recorded as 10 (10: 100%). For the same molecule, the “phytotoxicity, Oryza sativa” value in [12] (1 g a.i./10 a) and in [12] (5 g a.i./10 a) was 1 (1: 10% to less than 20%) in each case.
As to `COc1ccccc1CC(=O)Nc1c(C#N)cnn1-c1nn2c(c1Cl)CCCC2` [Compound 7], the “herbicidal efficacy, Galinsoga parviflora” value in [1] is on record as 10 (10: 100%). In addition, the “herbicidal efficacy, Digitaria ciliaris” value in data set [2] is reported as 10 (10: 100%).
For the molecule `N#Cc1cnn(-c2nn3c(c2Cl)CCCC3)c1NC(=O)Cc1ccccc1Cl` [Compound 8], the “herbicidal efficacy, Galinsoga parviflora” value in data set [1] is reported as 10 (10: 100%). Moreover, in data set [2], the “herbicidal efficacy, Digitaria ciliaris” value is recorded as 10 (10: 100%).
With `COc1cccc(CC(=O)Nc2c(C#N)cnn2-c2nn3c(c2Cl)CCCC3)c1` [Compound 10], the “herbicidal efficacy, Galinsoga parviflora” value in [1] is given as 10 (10: 100%). Also, the “herbicidal efficacy, Digitaria ciliaris” value in data set [2] is given as 10 (10: 100%).
As for `N#Cc1cnn(-c2nn3c(c2Cl)CCCC3)c1NC(=O)Cc1cccc(Cl)c1` [Compound 12], in data set [1], the “herbicidal efficacy, Galinsoga parviflora” value is 10 (10: 100%). Further, in data set [2], the “herbicidal efficacy, Digitaria ciliaris” value is 10 (10: 100%).
Consider `Cc1ccc(CC(=O)Nc2c(C#N)cnn2-c2nn3c(c2Cl)CCCC3)cc1` [Compound 13], for which, in data set [1], the “herbicidal efficacy, Galinsoga parviflora” value is reported as 10 (10: 100%). In [2], the “herbicidal efficacy, Digitaria ciliaris” value was 10 (10: 100%).
As to `COc1ccc(CC(=O)Nc2c(C#N)cnn2-c2nn3c(c2Cl)CCCC3)cc1` [Compound 14], in [1], the “herbicidal efficacy, Galinsoga parviflora” value is 10 (10: 100%). For the same molecule, in data set [2], the “herbicidal efficacy, Digitaria ciliaris” value is 10 (10: 100%).
As to `N#Cc1cnn(-c2nn3c(c2Cl)CCCC3)c1NC(=O)Cc1ccc(Cl)cc1` [Compound 16], the “herbicidal efficacy, Galinsoga parviflora” value in data set [1] is given as 10 (10: 100%). The “herbicidal efficacy, Digitaria ciliaris” value in [2] is listed as 10 (10: 100%).
Consider `N#Cc1cnn(-c2nn3c(c2Cl)CCCC3)c1NC(=O)Cc1ccc(C(F)(F)F)cc1` [Compound 17], for which the “herbicidal efficacy, Galinsoga parviflora” value in data set [1] is on record as 10 (10: 100%). For the same molecule, in data set [2], the “herbicidal efficacy, Digitaria ciliaris” value is 10 (10: 100%).
Turning to `N#Cc1cnn(-c2nn3c(c2Cl)CCCC3)c1NC(=O)Cc1ccc(Cl)cc1Cl` [Compound 18], the “herbicidal efficacy, Galinsoga parviflora” value in data set [1] is reported as 10 (10: 100%). In addition, the “herbicidal efficacy, Digitaria ciliaris” value in data set [2] is on record as 10 (10: 100%).
